Assay results from patent US20040097595A1, “Phthalamide derivatives, insecticides for agricultural and horticultural use and method for application thereof” (priority 2001, published 2004).

Columns and labels:
[1] = tested on: Common Cutworm (Spodoptera litura); experiment: Test Example 2: insecticidal effect on common cutworm, cabbage leaf immersion; type: in vivo; conditions: cabbage leaf immersed, second-instar larvae, eight days after inoculation, 25° C.
Description: Insecticidal Effect on Common Cutworm (Spodoptera litura)
A piece of cabbage leaf (cultivar; Shikidori) was immersed for about 30 seconds in a liquid chemical prepared by diluting a preparation containing each compound listed in Table 1 or 2 as an active ingredient to adjust the prescribed concentration. After air-dryness, it was placed in a plastic Petri dish with a diameter of 9 cm and inoculated with second-instar larvae of common cutworm, after which the dish was closed and then allowed to stand in a room thermostatted at 25° C. Eight days after the inoculation, the dead and alive were counted. The mortality was calculated according to the following equation and the insecticidal effect was judged according to the criterion shown in Test Example 1. The test was carried out with triplicate groups of 10 insects. [formula]

[2] = tested on: Diamond Back Moth (Plutella xylostella); experiment: Test Example 1: insecticidal effect on diamond back moth, Chinese cabbage seedling with eggs immersed in liquid chemical; type: in vivo; conditions: eggs on Chinese cabbage seedling immersed about 30 seconds, six days after immersion, 25° C.
Description: Insecticidal Effect on Diamond Back Moth (Plutella xylostella)
Adult diamond back moths were released and allowed to oviposit on a Chinese cabbage seedling. Two days after the release, the seedling having the eggs deposited thereon was immersed for about 30 seconds in a liquid chemical prepared by diluting a preparation containing each compound listed in Table 1 or 2 as an active ingredient to adjust the prescribed concentration. After air-dryness, it was allowed to stand in a room thermostatted at 25° C. Six days after the immersion, the hatched insects were counted. The mortality was calculated according to the following equation and the insecticidal effect was judged according to the criterion shown below. The test was carried out with triplicate groups of 10 insects. [formula]

SMILES	Test Example 2 insecticidal effect (mortality grade) ([1]; 5 ppm)	Test Example 2 insecticidal effect (mortality grade) ([1]; 50 ppm)	Test Example 1 insecticidal effect (mortality grade) ([2]; 5 ppm)	Test Example 1 insecticidal effect (mortality grade) ([2]; 50 ppm)	mortality at 5 ppm ([1]; Spodoptera litura, 192 h, 5 ppm, read-out: Test Example 2 insecticidal effect (mortality grade)) [%]	mortality at 50 ppm ([1]; Spodoptera litura, 192 h, 50 ppm, read-out: Test Example 2 insecticidal effect (mortality grade)) [%]	mortality at 5 ppm ([2]; Plutella xylostella, 144 h, 5 ppm, read-out: Test Example 1 insecticidal effect (mortality grade)) [%]	mortality at 50 ppm ([2]; Plutella xylostella, 144 h, 50 ppm, read-out: Test Example 1 insecticidal effect (mortality grade)) [%]
CSCC(C)(C)NC(=O)c1c(I)cccc1C(=O)Nc1ccc(C(F)(F)F)cc1Cl [Compound 1-20]	A (Mortality 100%)	A (Mortality 100%)	A (Mortality 100%)	A (Mortality 100%)	–	–	–	–
C[S+]([O-])CC(C)(C)NC(=O)c1c(I)cccc1C(=O)Nc1ccc(C(F)(F)F)cc1Cl (centres unmarked) [Compound 1-21]	C (Mortality 89-80%)	A (Mortality 100%)	A (Mortality 100%)	A (Mortality 100%)	–	–	–	–
CC(C)(CS(C)(=O)=O)NC(=O)c1c(I)cccc1C(=O)Nc1ccc(C(F)(F)F)cc1Cl [Compound 1-22]	C (Mortality 89-80%)	A (Mortality 100%)	A (Mortality 100%)	A (Mortality 100%)	–	–	–	–
CSCC(C)(C)NC(=O)c1c(I)cccc1C(=O)Nc1ccc(-c2ccc(Cl)cc2)cc1Cl [Compound 1-38]	E (Mortality 49-0%)	A (Mortality 100%)	A (Mortality 100%)	A (Mortality 100%)	–	–	–	–
CSCC(C)(C)NC(=O)c1c(I)cccc1C(=O)Nc1ccc(OC(F)F)c(Cl)c1Cl [Compound 1-43]	A (Mortality 100%)	A (Mortality 100%)	A (Mortality 100%)	A (Mortality 100%)	–	–	–	–
C[S+]([O-])CC(C)(C)NC(=O)c1c(I)cccc1C(=O)Nc1ccc(OC(F)F)c(Cl)c1Cl (centres unmarked) [Compound 1-44]	E (Mortality 49-0%)	A (Mortality 100%)	A (Mortality 100%)	A (Mortality 100%)	–	–	–	–
CC(C)(CS(C)(=O)=O)NC(=O)c1c(I)cccc1C(=O)Nc1ccc(OC(F)F)c(Cl)c1Cl [Compound 1-45]	E (Mortality 49-0%)	A (Mortality 100%)	A (Mortality 100%)	A (Mortality 100%)	–	–	–	–
CSCC(C)(C)NC(=O)c1c(I)cccc1C(=O)Nc1ccc(OC(F)(F)Cl)cc1Cl [Compound 1-48]	A (Mortality 100%)	A (Mortality 100%)	A (Mortality 100%)	A (Mortality 100%)	–	–	–	–
C[S+]([O-])CC(C)(C)NC(=O)c1c(I)cccc1C(=O)Nc1ccc(OC(F)(F)F)cc1Cl (centres unmarked) [Compound 1-52, N^1-[2-chloro-4-(trifluoromethoxy)phenyl]-N^2-(1,1-dimethyl-2methylsulfinylethyl)-3-iodophthalamide]	–	–	–	–	100	100	100	100
CSCC(C)(C)NC(=O)c1c(I)cccc1C(=O)Nc1ccc(OC(F)(F)C(F)Cl)cc1Cl (centres unmarked) [Compound 1-58]	E (Mortality 49-0%)	A (Mortality 100%)	E (Mortality 49-0%)	A (Mortality 100%)	–	–	–	–
CSCC(C)(C)NC(=O)c1c(I)cccc1C(=O)Nc1ccc(OC(C(F)(F)F)C(F)(F)F)cc1Cl [Compound 1-64]	A (Mortality 100%)	A (Mortality 100%)	A (Mortality 100%)	A (Mortality 100%)	–	–	–	–
CSCC(C)(C)NC(=O)c1c(I)cccc1C(=O)Nc1ccc(OC(F)(F)C(F)C(F)(F)F)c(Cl)c1Cl (centres unmarked) [Compound 1-66, 3-iodo-N^1-[2,3-dichloro-4-(1,1,2,3,3,3-hexafluoropropoxy)phenyl]-N^2-[(1,1-dimethyl-2-methylthio)ethyl]phthalamide]	E (Mortality 49-0%)	A (Mortality 100%)	E (Mortality 49-0%)	A (Mortality 100%)	–	–	–	–
C[S+]([O-])CC(C)(C)NC(=O)c1c(I)cccc1C(=O)Nc1ccc(OC(F)(F)C(F)C(F)(F)F)cc1Cl (centres unmarked) [Compound 1-67]	E (Mortality 49-0%)	A (Mortality 100%)	A (Mortality 100%)	A (Mortality 100%)	–	–	–	–
CC(C)(CS(C)(=O)=O)NC(=O)c1c(I)cccc1C(=O)Nc1ccc(OC(F)(F)C(F)C(F)(F)F)cc1Cl (centres unmarked) [Compound 1-68]	E (Mortality 49-0%)	A (Mortality 100%)	A (Mortality 100%)	A (Mortality 100%)	–	–	–	–
CSCC(C)(C)NC(=O)c1c(I)cccc1C(=O)Nc1ccc(OC(F)(F)C(F)C(F)(F)F)c(Cl)c1Cl (centres unmarked) [Compound 1-69]	E (Mortality 49-0%)	A (Mortality 100%)	A (Mortality 100%)	A (Mortality 100%)	–	–	–	–
C[S+]([O-])CC(C)(C)NC(=O)c1c(I)cccc1C(=O)Nc1ccc(OC(F)(F)C(F)C(F)(F)F)c(Cl)c1Cl (centres unmarked) [Compound 1-70]	E (Mortality 49-0%)	A (Mortality 100%)	A (Mortality 100%)	A (Mortality 100%)	–	–	–	–
CC(C)(CS(C)(=O)=O)NC(=O)c1c(I)cccc1C(=O)Nc1ccc(OC(F)(F)C(F)C(F)(F)F)c(Cl)c1Cl (centres unmarked) [Compound 1-71]	E (Mortality 49-0%)	A (Mortality 100%)	A (Mortality 100%)	A (Mortality 100%)	–	–	–	–
CSCC(C)(C)NC(=O)c1c(I)cccc1C(=O)Nc1cc(Cl)c(OC(F)(Cl)C(F)(Cl)C(F)(F)F)cc1Cl (centres unmarked) [Compound 1-73]	E (Mortality 49-0%)	A (Mortality 100%)	E (Mortality 49-0%)	A (Mortality 100%)	–	–	–	–
CSCC(C)(C)NC(=O)c1c(I)cccc1C(=O)Nc1ccc(OC(F)(F)C(F)OC(F)(F)F)cc1Cl (centres unmarked) [Compound 1-74]	E (Mortality 49-0%)	A (Mortality 100%)	A (Mortality 100%)	A (Mortality 100%)	–	–	–	–
C[S+]([O-])CC(C)(C)NC(=O)c1c(I)cccc1C(=O)Nc1ccc(OC(F)(F)C(F)OC(F)(F)F)cc1Cl (centres unmarked) [Compound 1-75]	E (Mortality 49-0%)	A (Mortality 100%)	A (Mortality 100%)	A (Mortality 100%)	–	–	–	–
CC(C)(CS(C)(=O)=O)NC(=O)c1c(I)cccc1C(=O)Nc1ccc(OC(F)(F)C(F)OC(F)(F)F)cc1Cl (centres unmarked) [Compound 1-76]	E (Mortality 49-0%)	A (Mortality 100%)	A (Mortality 100%)	A (Mortality 100%)	–	–	–	–
CSCC(C)(C)NC(=O)c1c(I)cccc1C(=O)Nc1ccc(OC(F)(F)C(F)OC(F)(F)C(F)(F)C(F)(F)F)cc1Cl (centres unmarked) [Compound 1-81]	A (Mortality 100%)	A (Mortality 100%)	A (Mortality 100%)	A (Mortality 100%)	–	–	–	–
C[S+]([O-])CC(C)(C)NC(=O)c1c(I)cccc1C(=O)Nc1ccc(OC(F)(F)C(F)OC(F)(F)C(F)(F)C(F)(F)F)cc1Cl (centres unmarked) [Compound 1-82]	C (Mortality 89-80%)	A (Mortality 100%)	A (Mortality 100%)	A (Mortality 100%)	–	–	–	–
